Source: ChEMBL document CHEMBL5291721, “A preclinical secondary pharmacology resource illuminates target-adverse drug reaction associations of marketed drugs” (Nat Commun, 2023)

Experiments:
[1] = molecular target: T1, Alpha-1A adrenergic receptor (Homo sapiens, UniProt P35348); format: functional, cell-based
T1 sequence (P35348 whole entry): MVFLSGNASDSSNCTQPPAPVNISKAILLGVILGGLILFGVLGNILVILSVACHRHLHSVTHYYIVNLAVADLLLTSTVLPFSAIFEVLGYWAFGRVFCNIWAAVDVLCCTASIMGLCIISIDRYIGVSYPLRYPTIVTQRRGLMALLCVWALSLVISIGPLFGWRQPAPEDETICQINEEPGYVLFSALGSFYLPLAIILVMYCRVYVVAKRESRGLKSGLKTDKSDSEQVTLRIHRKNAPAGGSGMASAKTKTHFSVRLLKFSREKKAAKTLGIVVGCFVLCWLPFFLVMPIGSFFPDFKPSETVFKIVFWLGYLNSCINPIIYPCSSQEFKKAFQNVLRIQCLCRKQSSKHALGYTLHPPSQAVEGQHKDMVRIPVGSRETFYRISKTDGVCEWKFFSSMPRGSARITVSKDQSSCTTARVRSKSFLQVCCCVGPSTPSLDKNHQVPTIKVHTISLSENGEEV

[2] = molecular target: T2, Alpha-2A adrenergic receptor (Homo sapiens, UniProt P08913)
T2 sequence (P08913 whole entry): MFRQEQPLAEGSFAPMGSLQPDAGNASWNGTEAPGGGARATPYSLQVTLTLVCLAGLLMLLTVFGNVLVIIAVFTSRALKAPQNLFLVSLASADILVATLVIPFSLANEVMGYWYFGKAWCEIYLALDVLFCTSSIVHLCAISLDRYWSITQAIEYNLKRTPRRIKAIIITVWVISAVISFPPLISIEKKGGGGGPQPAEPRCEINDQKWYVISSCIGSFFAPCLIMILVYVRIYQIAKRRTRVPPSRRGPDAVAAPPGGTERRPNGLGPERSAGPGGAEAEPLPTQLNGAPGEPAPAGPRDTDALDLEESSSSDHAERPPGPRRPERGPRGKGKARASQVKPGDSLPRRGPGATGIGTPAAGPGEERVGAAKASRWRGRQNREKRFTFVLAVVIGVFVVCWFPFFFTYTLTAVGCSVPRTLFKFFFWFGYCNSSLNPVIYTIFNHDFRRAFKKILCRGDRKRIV

[3] = molecular target: T3, Muscarinic acetylcholine receptor M2 (Homo sapiens, UniProt P08172)
T3 sequence (P08172 whole entry): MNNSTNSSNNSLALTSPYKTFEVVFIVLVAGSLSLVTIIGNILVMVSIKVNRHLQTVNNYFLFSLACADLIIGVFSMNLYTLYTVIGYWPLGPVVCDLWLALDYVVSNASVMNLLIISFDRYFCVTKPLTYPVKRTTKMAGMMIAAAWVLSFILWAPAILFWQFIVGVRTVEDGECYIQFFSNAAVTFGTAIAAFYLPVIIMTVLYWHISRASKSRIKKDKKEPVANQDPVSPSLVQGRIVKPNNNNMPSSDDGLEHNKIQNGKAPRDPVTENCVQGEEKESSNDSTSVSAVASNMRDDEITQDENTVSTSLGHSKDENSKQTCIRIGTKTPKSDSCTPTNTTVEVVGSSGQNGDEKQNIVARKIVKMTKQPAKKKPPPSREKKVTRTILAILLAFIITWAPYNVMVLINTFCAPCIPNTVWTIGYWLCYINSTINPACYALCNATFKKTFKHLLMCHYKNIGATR

[4] = molecular target: T4, D(1A) dopamine receptor (Homo sapiens, UniProt P21728)
T4 sequence (P21728 whole entry): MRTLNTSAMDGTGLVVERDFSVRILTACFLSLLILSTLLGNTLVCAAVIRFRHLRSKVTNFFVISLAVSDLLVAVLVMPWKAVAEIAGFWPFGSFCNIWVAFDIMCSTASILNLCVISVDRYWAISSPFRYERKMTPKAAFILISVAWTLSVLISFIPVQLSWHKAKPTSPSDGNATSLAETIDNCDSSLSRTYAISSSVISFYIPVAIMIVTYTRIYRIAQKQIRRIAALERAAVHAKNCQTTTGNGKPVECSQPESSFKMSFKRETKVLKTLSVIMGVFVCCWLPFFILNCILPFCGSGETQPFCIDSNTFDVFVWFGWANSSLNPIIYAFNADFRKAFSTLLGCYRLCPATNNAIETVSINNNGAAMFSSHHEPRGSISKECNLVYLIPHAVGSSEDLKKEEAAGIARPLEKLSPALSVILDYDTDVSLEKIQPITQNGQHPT

[5] = molecular target: Gamma-aminobutyric acid receptor subunit alpha-1 (Rattus norvegicus, UniProt P62813)
Sequence of Gamma-aminobutyric acid receptor subunit alpha-1 (P62813 whole entry): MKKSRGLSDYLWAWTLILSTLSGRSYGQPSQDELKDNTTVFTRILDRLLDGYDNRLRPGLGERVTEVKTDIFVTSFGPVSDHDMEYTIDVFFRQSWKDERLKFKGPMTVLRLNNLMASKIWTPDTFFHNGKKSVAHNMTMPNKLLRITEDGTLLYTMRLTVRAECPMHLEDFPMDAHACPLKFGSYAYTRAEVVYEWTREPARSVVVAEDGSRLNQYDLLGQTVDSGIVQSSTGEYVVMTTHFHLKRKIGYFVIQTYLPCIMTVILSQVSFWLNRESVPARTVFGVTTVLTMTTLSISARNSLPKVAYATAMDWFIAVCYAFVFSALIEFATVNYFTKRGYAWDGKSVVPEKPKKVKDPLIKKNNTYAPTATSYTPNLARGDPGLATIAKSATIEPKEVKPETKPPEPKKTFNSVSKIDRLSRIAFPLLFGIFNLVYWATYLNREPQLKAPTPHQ

[6] = molecular target: T5, Amine oxidase [flavin-containing] A (Homo sapiens, UniProt P21397); format: functional
T5 sequence (P21397 whole entry): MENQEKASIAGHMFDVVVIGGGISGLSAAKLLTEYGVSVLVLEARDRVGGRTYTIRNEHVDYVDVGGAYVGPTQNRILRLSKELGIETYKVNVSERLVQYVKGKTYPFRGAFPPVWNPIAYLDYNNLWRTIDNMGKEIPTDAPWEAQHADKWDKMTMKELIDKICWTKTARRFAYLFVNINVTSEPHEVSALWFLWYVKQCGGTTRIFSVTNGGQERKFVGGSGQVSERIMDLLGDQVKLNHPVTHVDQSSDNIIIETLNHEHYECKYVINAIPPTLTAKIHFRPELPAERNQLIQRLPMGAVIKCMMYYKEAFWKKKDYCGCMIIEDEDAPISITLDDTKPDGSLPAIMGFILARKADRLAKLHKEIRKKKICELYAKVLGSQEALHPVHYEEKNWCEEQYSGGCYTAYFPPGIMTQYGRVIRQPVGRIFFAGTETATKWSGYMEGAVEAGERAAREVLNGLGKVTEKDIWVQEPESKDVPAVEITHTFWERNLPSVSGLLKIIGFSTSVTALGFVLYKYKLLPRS

[7] = molecular target: Mu-type opioid receptor (Homo sapiens, UniProt P35372)
Sequence of Mu-type opioid receptor (P35372 whole entry): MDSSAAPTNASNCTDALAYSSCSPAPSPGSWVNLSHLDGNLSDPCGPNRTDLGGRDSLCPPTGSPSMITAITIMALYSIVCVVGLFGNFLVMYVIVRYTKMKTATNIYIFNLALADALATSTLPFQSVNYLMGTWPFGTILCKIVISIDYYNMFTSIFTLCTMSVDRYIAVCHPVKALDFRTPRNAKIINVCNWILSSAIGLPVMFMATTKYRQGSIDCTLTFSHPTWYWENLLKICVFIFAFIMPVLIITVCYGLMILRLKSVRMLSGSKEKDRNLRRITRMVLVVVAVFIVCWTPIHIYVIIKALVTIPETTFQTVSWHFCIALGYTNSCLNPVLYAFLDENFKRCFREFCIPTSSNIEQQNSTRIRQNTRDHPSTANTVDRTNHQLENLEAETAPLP

[8] = molecular target: cGMP-inhibited 3',5'-cyclic phosphodiesterase 3A (Homo sapiens, UniProt Q14432); format: functional
Sequence of cGMP-inhibited 3',5'-cyclic phosphodiesterase 3A (Q14432 whole entry): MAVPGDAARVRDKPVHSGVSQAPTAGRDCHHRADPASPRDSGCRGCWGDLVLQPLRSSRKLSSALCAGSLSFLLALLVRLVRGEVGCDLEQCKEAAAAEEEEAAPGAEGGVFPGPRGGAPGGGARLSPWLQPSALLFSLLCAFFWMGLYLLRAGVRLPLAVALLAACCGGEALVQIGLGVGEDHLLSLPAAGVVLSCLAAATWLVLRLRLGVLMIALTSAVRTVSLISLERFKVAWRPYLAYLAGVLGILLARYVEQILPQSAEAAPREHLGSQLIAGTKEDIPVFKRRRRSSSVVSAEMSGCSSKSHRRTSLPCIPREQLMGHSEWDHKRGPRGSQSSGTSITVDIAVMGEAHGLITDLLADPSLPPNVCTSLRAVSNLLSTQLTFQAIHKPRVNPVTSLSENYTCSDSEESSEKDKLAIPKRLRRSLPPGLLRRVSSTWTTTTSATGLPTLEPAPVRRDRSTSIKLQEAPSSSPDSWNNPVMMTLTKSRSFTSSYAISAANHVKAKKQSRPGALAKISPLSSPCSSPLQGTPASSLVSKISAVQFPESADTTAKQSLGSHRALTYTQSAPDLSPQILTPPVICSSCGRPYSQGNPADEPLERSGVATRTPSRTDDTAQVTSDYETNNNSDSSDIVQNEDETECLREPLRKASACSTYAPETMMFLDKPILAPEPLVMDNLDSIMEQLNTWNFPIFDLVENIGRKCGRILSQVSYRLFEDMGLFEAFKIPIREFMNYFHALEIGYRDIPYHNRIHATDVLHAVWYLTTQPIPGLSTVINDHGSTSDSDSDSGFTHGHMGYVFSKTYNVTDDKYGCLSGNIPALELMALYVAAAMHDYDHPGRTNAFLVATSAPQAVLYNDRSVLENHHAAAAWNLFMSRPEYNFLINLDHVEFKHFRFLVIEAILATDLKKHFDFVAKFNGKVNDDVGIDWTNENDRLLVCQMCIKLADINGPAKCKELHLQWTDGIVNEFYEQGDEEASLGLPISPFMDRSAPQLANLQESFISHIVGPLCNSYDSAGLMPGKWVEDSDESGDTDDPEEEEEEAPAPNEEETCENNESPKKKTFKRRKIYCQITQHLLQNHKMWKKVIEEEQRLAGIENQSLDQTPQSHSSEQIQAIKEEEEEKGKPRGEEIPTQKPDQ

[9] = molecular target: Sodium-dependent noradrenaline transporter (Homo sapiens, UniProt P23975)
Sequence of Sodium-dependent noradrenaline transporter (P23975 whole entry): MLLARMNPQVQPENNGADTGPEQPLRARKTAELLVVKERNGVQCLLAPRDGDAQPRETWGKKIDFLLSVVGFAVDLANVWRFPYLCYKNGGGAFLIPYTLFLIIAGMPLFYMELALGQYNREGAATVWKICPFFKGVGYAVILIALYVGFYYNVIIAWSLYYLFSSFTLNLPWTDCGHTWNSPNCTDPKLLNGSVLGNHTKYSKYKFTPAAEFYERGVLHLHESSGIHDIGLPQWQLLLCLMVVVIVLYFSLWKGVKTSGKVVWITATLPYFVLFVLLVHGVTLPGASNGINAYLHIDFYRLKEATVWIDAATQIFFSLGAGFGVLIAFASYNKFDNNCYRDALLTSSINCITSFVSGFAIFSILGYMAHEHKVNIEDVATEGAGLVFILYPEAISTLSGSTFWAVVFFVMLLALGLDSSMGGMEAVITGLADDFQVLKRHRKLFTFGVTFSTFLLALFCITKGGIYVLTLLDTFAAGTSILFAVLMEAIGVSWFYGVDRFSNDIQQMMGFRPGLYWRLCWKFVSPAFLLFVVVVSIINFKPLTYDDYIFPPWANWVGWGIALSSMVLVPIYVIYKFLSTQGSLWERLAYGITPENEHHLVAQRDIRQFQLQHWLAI

[10] = molecular target: Sodium-dependent dopamine transporter (Homo sapiens, UniProt Q01959)
Sequence of Sodium-dependent dopamine transporter (Q01959 whole entry): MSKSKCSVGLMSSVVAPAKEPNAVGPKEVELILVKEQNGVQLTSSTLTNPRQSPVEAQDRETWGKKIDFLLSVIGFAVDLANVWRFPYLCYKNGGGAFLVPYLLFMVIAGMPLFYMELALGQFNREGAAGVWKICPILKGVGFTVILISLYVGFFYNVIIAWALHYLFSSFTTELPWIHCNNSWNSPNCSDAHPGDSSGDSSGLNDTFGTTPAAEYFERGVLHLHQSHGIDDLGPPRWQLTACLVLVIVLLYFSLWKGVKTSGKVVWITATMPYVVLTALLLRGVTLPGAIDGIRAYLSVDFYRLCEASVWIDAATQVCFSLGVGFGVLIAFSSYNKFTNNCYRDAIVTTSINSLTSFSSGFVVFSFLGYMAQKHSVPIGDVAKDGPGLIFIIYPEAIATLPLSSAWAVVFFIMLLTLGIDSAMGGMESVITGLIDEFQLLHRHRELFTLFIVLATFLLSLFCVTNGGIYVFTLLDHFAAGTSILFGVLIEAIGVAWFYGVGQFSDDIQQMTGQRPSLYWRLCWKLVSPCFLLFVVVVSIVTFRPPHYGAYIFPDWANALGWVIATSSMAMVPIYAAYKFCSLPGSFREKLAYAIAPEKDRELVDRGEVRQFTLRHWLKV

[11] = molecular target: T6, Thromboxane A2 receptor (Homo sapiens, UniProt P21731); format: functional, cell-based
T6 sequence (P21731 whole entry): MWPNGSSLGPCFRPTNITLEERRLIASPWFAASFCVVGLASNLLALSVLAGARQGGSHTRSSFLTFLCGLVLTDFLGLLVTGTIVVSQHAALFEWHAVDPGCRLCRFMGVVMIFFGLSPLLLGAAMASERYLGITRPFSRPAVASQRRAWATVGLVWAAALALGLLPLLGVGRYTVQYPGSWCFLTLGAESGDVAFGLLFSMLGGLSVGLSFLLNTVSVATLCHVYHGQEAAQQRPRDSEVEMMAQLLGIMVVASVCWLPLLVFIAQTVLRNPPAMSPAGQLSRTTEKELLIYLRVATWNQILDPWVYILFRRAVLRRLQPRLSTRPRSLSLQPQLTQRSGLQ

[12] = molecular target: T4, D(1A) dopamine receptor; remark: listed apart in the source
[13] = molecular target: Sodium-dependent serotonin transporter (Homo sapiens, UniProt P31645)
Sequence of Sodium-dependent serotonin transporter (P31645 whole entry): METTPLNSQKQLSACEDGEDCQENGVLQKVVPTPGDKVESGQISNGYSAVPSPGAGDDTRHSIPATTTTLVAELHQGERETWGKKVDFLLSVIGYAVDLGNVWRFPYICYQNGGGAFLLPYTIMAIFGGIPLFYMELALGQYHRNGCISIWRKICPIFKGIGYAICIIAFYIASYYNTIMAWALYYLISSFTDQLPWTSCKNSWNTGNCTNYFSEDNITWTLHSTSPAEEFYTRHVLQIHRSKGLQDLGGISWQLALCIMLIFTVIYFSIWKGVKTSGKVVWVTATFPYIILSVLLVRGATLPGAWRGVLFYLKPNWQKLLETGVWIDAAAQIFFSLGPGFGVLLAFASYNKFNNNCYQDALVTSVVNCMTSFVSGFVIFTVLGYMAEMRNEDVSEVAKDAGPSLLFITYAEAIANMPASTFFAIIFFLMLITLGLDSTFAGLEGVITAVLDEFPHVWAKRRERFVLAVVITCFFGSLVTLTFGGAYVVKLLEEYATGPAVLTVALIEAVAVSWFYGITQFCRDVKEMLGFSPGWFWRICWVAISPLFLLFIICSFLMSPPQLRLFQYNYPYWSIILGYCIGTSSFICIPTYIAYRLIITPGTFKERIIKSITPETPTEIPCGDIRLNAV
Also: assay procedure not described here.

Row | AC50 [12] [µM] | AC50 [13] [µM] | Molecule | AC50 [1] [µM] | AC50 [2] [µM] | AC50 [3] [µM] | AC50 [4] [µM] | AC50 [5] [µM] | AC50 [6] [µM] | AC50 [7] [µM] | AC50 [8] [µM] | AC50 [9] [µM] | AC50 [10] [µM] | AC50 [11] [µM]
1 | – | – | Nc1nc2ccc(OC(F)(F)F)cc2s1 [RILUZOLE] | > 30 | > 30 | > 30 | > 30 | > 30 | > 30 | > 30 | > 30 | 2.59 | 18.7 | > 30
2 | > 30 | > 30 | BIVALIRUDIN | – | > 30 | > 30 | > 30 | > 30 | > 30 | > 30 | > 30 | > 30 | > 30 | > 30
